The values below are quoted from earlier work in patent US12576027B2, “Diclofenac topical formulation with a high absorption rate” (IBSA INSTITUT BIOCHIMIQUE SA, priority 2021, dated 2026).

For this series the following is noted: orally administered.

SMILES strings stand for the structures. A value given as a limit tells only on which side of the number the result lay.

As to `O=C(O)Cc1ccccc1Nc1c(Cl)cccc1Cl` [diclofenac, 2-[(2,6-dichlorophenyl)-amino]benzeneacetic acid], the absorption result is reported as “almost complete” and the “time to high hematic peaks from administration” value is at most 2 h.
